# Assay results as given in ChEMBL document CHEMBL5375952, “Discovery of Novel 8-Hydroxyquinoline Derivatives with Potent In Vitro and In Vivo Antifungal Activity” (J Med Chem, 2023).
# What was measured:
# Type in all cases: functional
# [1] = test system: Candida albicans; experiment: Antifungal activity against Candida albicans SC5314 assessed as fungal growth inhibition incubated for 48 hrs by broth microdilution method
# [2] = test system: Candida albicans; experiment: Antifungal activity against Candida albicans 21 assessed as fungal growth inhibition incubated for 48 hrs by broth microdilution method
# [3] = test system: Candida albicans; experiment: Antifungal activity against Candida albicans 22 assessed as fungal growth inhibition incubated for 48 hrs by broth microdilution method
MIC [1] [µg/mL],MIC [2] [µg/mL],MIC [3] [µg/mL],Structure (SMILES)
2,0.25,1,O=C(Cc1ccccc1)NC(c1ccc(Cl)cc1)c1ccc2cccnc2c1O (centres undefined)
1,0.25,1,Cc1ccc(C(NC(=O)Cc2ccccc2)c2ccc3cccnc3c2O)cc1 (centres undefined)
0.25,0.25,0.5,CCCC(=O)NC(c1ccc(N(C)C)cc1)c1ccc2cccnc2c1O (centres undefined)
1,1,1,CCCC(=O)NC(c1cccc([N+](=O)[O-])c1)c1ccc2cccnc2c1O (centres undefined)
1,0.5,0.5,CC(C)C(=O)NC(c1ccc(OC(F)F)cc1)c1ccc2cccnc2c1O (centres undefined)
2,0.25,1,CCN(CC)c1ccc(C(NC(=O)CCc2ccccc2)c2ccc3cccnc3c2O)cc1 (centres undefined)
1,2,4,CSc1ccc(C(NC(=O)Cc2ccccc2)c2ccc3cccnc3c2O)cc1 (centres undefined)
2,2,1,CC(C)C(=O)NC(c1ccc(S(C)(=O)=O)cc1)c1ccc2cccnc2c1O (centres undefined)
0.5,1,1,O=C(Cc1ccccc1)NC(c1ccc(F)cc1)c1ccc2cccnc2c1O (centres undefined)
1,1,1,OCCN1CCN(C(c2ccccc2)c2ccc3cccnc3c2O)CC1 (centres undefined)
1,1,2,CC(C)C(=O)NC(c1ccc(C(F)(F)F)cc1)c1ccc2cccnc2c1O (centres undefined)
0.25,0.5,2,CN(C)c1ccc(C(NC(=O)Cc2ccccc2)c2ccc3cccnc3c2O)cc1 (centres undefined)
2,0.5,1,COc1ccc(C(NC(=O)C(C)C)c2ccc3cccnc3c2O)cc1 (centres undefined)
1,0.5,0.5,O=C(Cc1ccccc1)NC(c1ccc(OC(F)F)cc1)c1ccc2cccnc2c1O (centres undefined)
0.5,1,1,O=C(Cc1ccccc1)NC(c1ccc(Cl)c(Cl)c1)c1ccc2cccnc2c1O (centres undefined)
4,4,4,CN1CCN(C(c2ccncc2)c2ccc3cccnc3c2O)CC1 (centres undefined)
1,1,1,CC(C)C(=O)NC(c1ccc(F)cc1)c1ccc2cccnc2c1O (centres undefined)
> 64,64,> 64,COc1ccccc1C(NC(=O)C(C)C)c1cc(Cl)c2cccnc2c1O (centres undefined)
2,1,1,Cc1ccc(C(NC(=O)C(C)C)c2ccc3cccnc3c2O)cc1 (centres undefined)
0.5,0.5,1,O=C(Cc1ccccc1)NC(c1ccc(F)c(Cl)c1)c1ccc2cccnc2c1O (centres undefined)
2,1,2,CS(=O)(=O)c1ccc(C(NC(=O)Cc2ccccc2)c2ccc3cccnc3c2O)cc1 (centres undefined)
0.5,0.5,0.5,COc1ccc(C(NC(=O)CC(C)C)c2ccc3cccnc3c2O)cc1OC (centres undefined)
0.5,1,1,CC(C)C(=O)NC(c1ccc(OC(F)(F)F)cc1)c1ccc2cccnc2c1O (centres undefined)
